Patent publication US20090131343A1, “USE OF BRIDGED MACROLIDES OR TYLOSIN DERIVATIVES IN TREATING INFLAMMATORY BOWEL DISEASES” (priority 2007, published 2009)

Tested on: NFkB
Test: In vitro inflammatory assay: TNFα-induced NFkB luciferase reporter in Jurkat cells
Assay type: cell-based
Conditions: for IC50 / inhibition at 120 µM: Homo sapiens; for IC50: read-out: IC50 (μM), in vitro inflammatory data (inhibition of NFkB activity)
Experimental: I. Protocol for In Vitro Inflammatory Assay:
• 1. Jurkat cell line expressing a luciferase reporter under the control of an NFkB promoter sequence was created. Clones were isolated using G418 and then characterized for enhanced luciferase activity following stimulation of cells with either TNFα or PMA+Ionomycin. • 2. Assay protocol was as follows: • Day 1: Cells were split to a density of 1.1×10^5 cells/mL. • Day 2: • Cells were adjusted to a density of 2×10^5/mL. • 100 μl of cells were added to each well of a 96-well plate. • Test compounds were diluted to 200 μg/mL in media (1% DMSO). • 100 μl of diluted test compound was added to cells. Final test compound concentration from […] was added and the final DMSO concentration=0.5%. Compounds were tested in duplicate. • Plates were incubated 1 hour at 37° C. • 10 μl of a 2.1 nM TNFα solution was added to each well. Plates were returned to 37° C. for another 4 hours. • TNFα-induced luciferase activity was determined using commercially available kits and a microplate luminometer. • Inhibition of NFkB activity was determined by comparing luciferase activity from test compound-treated cells to luciferase activity in 0.5% DMSO-treated (control) cells.

[1] = Jurkat NFkB-luciferase reporter cells, TNFα stimulation, 1 hour preincubation + 4 hours
[2] = Jurkat NFkB-luciferase reporter cells, TNFα stimulation

IC50 [1] | SMILES | further results
17 µM | CC[C@H]1OC(=O)C[C@@H](O)[C@H](C)[C@@H](OC2O[C@H](C)[C@@H](OC(=O)c3ccccc3)[C@H](C(C)C)[C@H]2OC(=O)c2ccccc2)[C@@H](CC=O)C[C@@H](C)C(=O)/C=C/C(C)=C/[C@@H]1CO (stereo partly shown) [Entry 12] | –
> 120 µM | CO[C@@H]1[C@@H](O[C@@H]2O[C@H](C)[C@@H](O[C@H]3C[C@@](C)(O)[C@@H](OC(=O)CC(C)C)[C@H](C)O3)[C@H](N(C)C)[C@H]2O)[C@@H](CC=O)C[C@@H](C)[C@@H](O)/C=C/C=C/C[C@@H](C)OC(=O)C[C@H]1OC(C)=O [Josamycin] | inhibition at 120 µM [2]: ~20%
> 120 µM | CC[C@H]1OC(=O)C[C@@H](O)[C@H](C)[C@@H](O[C@@H]2O[C@H](C)[C@@H](O[C@H]3C[C@@](C)(O)[C@@H](O)[C@H](C)O3)[C@H](N(C)C)[C@H]2O)[C@@H](CC=O)C[C@@H](C)C(=O)/C=C/C(C)=C/[C@@H]1CO[C@@H]1O[C@H](C)[C@@H](O)[C@@H](OC)[C@H]1OC [Tylosin] | inhibition at 120 µM [2]: ~20%

Second part, the molecule before the results:

SMILES | IC50 [1] | further results
C=CCOC1C(C)OC(O[C@H]2[C@@H](CC=O)C[C@@H](C)C(=O)/C=C/C=C/C[C@@H](C)OC(=O)/C=C/[C@@H]2OC)C(O)C1N(C)C (stereo partly shown) [Entry 8] | 41 µM | –
CC[C@H]1OC(=O)[C@H](C)[C@@H](C)[C@H](C)[C@H](OC2O[C@H](C)C[C@H](N(C)C)[C@@H]2OC(=O)c2ccccc2)[C@](C)(O)C[C@H](C)/C(=N\OCOCCN2CCN(c3ccccc3)CC2)[C@@H](C)[C@H](O)[C@@]1(C)O (stereo partly shown) [Entry 10] | 30 µM | –
CC[C@@H]1OC(=O)C[C@H](O)[C@@H](C)[C@H](OC2O[C@H](C)[C@H](OC(C)=O)[C@H](N(C)C)[C@@H]2OC(C)=O)[C@H](CCO)C[C@H](C)C(=O)/C=C/C(C)=C/[C@@H]1CO[Si](C)(C)C(C)(C)C (stereo partly shown) [Entry 11] | 22 µM | –
CC[C@H]1OC(=O)[C@H](C)[C@@H](O[C@H]2C[C@@](C)(OC)[C@@H](O)[C@H](C)O2)[C@H](C)[C@@H](O[C@@H]2O[C@H](C)C[C@H](N(C)C)[C@H]2O)[C@](C)(O)C[C@@H](C)C(=O)[C@H](C)[C@@H](O)[C@]1(C)O [Erythromycin] | – | IC50 (μM), in vitro inflammatory data (inhibition of NFkB activity) [1]: Inactive
CC[C@H]1OC(=O)C[C@@H](O)[C@H](C)[C@@H](O[C@@H]2O[C@H](C)[C@@H](OC(=O)c3ccccc3)[C@H](N(C)C)[C@H]2OC(=O)c2ccccc2)[C@@H](CC=O)C[C@@H](C)C(=O)/C=C/C(C)=C/[C@@H]1CO [compound (3)] | – | activity in vitro inflammatory assay compared with Erythromycin, Clarithromycin, Josamycin and Tylosin (comparison in words): improved activity
